Molecules are shown by their SMILES. pIC50: −log10 of the molar value.

The experiment deals with T1, secreted acid phosphatase (SAP).
T1 construct: native enzyme activity in cell-free culture supernatant
The experiment can be described thus: pNPP phosphatase assay, compound added directly to control cell-free supernatant, dose-dependent. Type of experiment: biochemical, Leishmania tarentolae.

For `COc1cc(/C=N/NC(=S)SC)cc(OC)c1O` [ZZ1-04], the pIC50 is 4.10 to 4.22.

Source of the values: PMC11676996, “Inhibitory Effects of Sulfur Derivatives on Leishmania tarentolae Cell Viability and Secreted Acid Phosphatase In Vitro” (Microorganisms, 2024).
